Assay results: patent US20220002400A1 (priority 2019, published 2022)
Several values for one entry are separate records, joined by “and”; a condition that tells them apart may be missing. Equal entries are not always repeated.

Tests used:
Type in all cases: cell-based
Influenza A PR8 virus [1] = details: 10 nM
Influenza A PR8 virus [2] = test system: Influenza A PR8 virus
A549 cells = details: 100 nM for 1 hour at 37° C.

In the case of `COC(=O)OCOc1c2n(ccc1=O)N([C@@H]1c3ccccc3SCc3c1ccc(F)c3F)[C@@H]1COCCN1C2=O` [baloxavir marboxil], the “effect of baloxavir marboxil treatment combined with CRISPR deletion on Influenza A virus infection” value (Influenza A PR8 virus [1]; 1 nM, 5 nM) was “synergistic effect with baloxavir marboxil treatment but to a lesser extent compared to CMTR1” and the “reduction of the rate of Influenza A virus infection compared to untreated cells, according to Hemagglutinin staining” value (Influenza A PR8 virus [1]) was 58% and 91%.
In the case of `CO/C1=C\C(C)=C\[C@@H](C)[C@@H](O)[C@@H](C)C/C(C)=C/C=C/[C@H](OC)[C@@H]([C@@H](C)[C@@H](O)[C@H](C)[C@@]2(O)C[C@@H](O)[C@H](C)[C@@H](C(C)C)O2)OC1=O` [BafA, Bafilomycin A], the “protection against IAV infection (percentage of HA+ cells)” value (Influenza A PR8 virus [2]) was “further protected the KO cells against IAV infection” and the lysotracker staining (A549 cells) was “a decrease in lysotracker staining was observed”.
